Assay results published in ChEMBL document CHEMBL1151057, “Difunctional enols of N-protected amino acids as low molecular weight and novel inhibitors of HIV-1 protease” (Bioorg Med Chem Lett, 1993).

Tests used:
[1] = target: T1, Human immunodeficiency virus type 1 protease (Human immunodeficiency virus 1, UniProt Q72874); test: Apparent inhibitory constant against HIV-1 protease was determined; settings: read-out: Ki app
[2] = target: T1, Human immunodeficiency virus type 1 protease; test: Inhibitory concentration required to inhibit HIV-1 protease was determined
[3] = target: T1, Human immunodeficiency virus type 1 protease; test: Inhibitory constant against HIV-1 protease was determined
[4] = target: T1, Human immunodeficiency virus type 1 protease; test: Inhibitory constant against HIV-1 protease at 400 uM; NI means no inhibition

SMILES | Ki [1] | other results
CC(C)(C)OC(=O)N[C@@H](C(=O)C(N)c1ccccc1)/C(O)=C(\C#N)c1ccc([N+](=O)[O-])cc1 (stereo partly drawn) | 30 µM | 
N#C/C(=C(/O)[C@H](Cc1ccccc1)NC(=O)OCc1ccccc1)c1ccc([N+](=O)[O-])cc1 | 30 µM | 
CC(C)(C)OC(=O)NCC(=O)N[C@@H](Cc1ccccc1)/C(O)=C(\C#N)c1ccc([N+](=O)[O-])cc1 |  | IC50 [2]: 58 µM
CO/C(O)=C(/C#N)C(=O)[C@H](Cc1ccccc1)NC(=O)C(CC(C)C)NC(C)=O (stereo partly drawn) |  | Ki [3]: 209 µM
CC(C)(C)OC(=O)N[C@@H](C(=O)C(N)Cc1ccc([N+](=O)[O-])cc1)/C(O)=C(\C#N)c1ccc([N+](=O)[O-])cc1 (stereo partly drawn) | 60 µM | 
CC(=O)NC(CC(C)C)C(=O)N[C@@H](Cc1ccccc1)/C(O)=C(\C#N)c1c(F)c(F)c(F)c(F)c1F (stereo partly drawn) | 7 µM | 
CC(C)(C)OC(=O)N[C@@H](C(=O)C1CCCN1)/C(O)=C(\C#N)c1ccc([N+](=O)[O-])cc1 (stereo partly drawn) | 181 µM | 
N#C/C(=C(/O)[C@H](Cc1ccccc1)NC(=O)OCC1c2ccccc2-c2ccccc21)c1ccc([N+](=O)[O-])cc1 | 78 µM | 
CC(=O)NC(CC(C)C)C(=O)N[C@@H](Cc1ccccc1)/C(O)=C(\C#N)c1ccc([N+](=O)[O-])cc1 (stereo partly drawn) | 9 µM | Ki [3]: 9.5 µM
CC(=O)NC(CC(C)C)C(=O)N[C@@H](Cc1ccccc1)/C(O)=C(\C#N)c1ccncc1 (stereo partly drawn) |  | Ki [3]: 168 µM
CC(C)(C)OC(=O)N[C@@H](C(=O)C(N)Cc1ccc2ccccc2c1)/C(O)=C(\C#N)c1ccc([N+](=O)[O-])cc1 (stereo partly drawn) | 38 µM | 
CC(C)(C)OC(=O)N[C@@H](Cc1ccccc1)/C(O)=C(\C#N)c1ccc([N+](=O)[O-])cc1 | 2.3 µM | 
CC(=O)NC(CC(C)C)C(=O)N[C@@H](Cc1ccccc1)C(O)=C(C#N)C#N (stereo partly drawn) |  | Ki [4]: Not Active
CC(C)(C)OC(=O)N[C@@H](Cc1ccccc1)/C(O)=C(\C#N)c1c(F)c(F)c(F)c(F)c1F | 0.48 µM | 
CC(C)(C)OC(=O)N[C@@H](C(=O)C(N)Cc1c[nH]c2ccccc12)/C(O)=C(\C#N)c1ccc([N+](=O)[O-])cc1 (stereo partly drawn) | 18 µM | 
CC(C)(C)OC(=O)N[C@@H](C(=O)C(N)Cc1ccccc1)/C(O)=C/c1ccc([N+](=O)[O-])cc1 (stereo partly drawn) | 689 µM | 
CC(C)(C)OC(=O)N[C@@H](C(=O)[C@@H](N)Cc1ccccc1)/C(O)=C(\C#N)c1ccc([N+](=O)[O-])cc1 | 54 µM | 
CC(C)(C)OC(=O)N[C@@H](C(=O)C(N)CC1CCCCC1)/C(O)=C(\C#N)c1ccc([N+](=O)[O-])cc1 (stereo partly drawn) | 15 µM | 
CC(C)(C)OC(=O)N[C@@H](C(=O)C(N)Cc1ccc(OCc2ccccc2)cc1)/C(O)=C(\C#N)c1ccc([N+](=O)[O-])cc1 (stereo partly drawn) | 12 µM | 
CC(=O)NC(CC(C)C)C(=O)N[C@@H](Cc1ccccc1)/C(O)=C(\C#N)S(=O)(=O)c1ccccc1 (stereo partly drawn) |  | Ki [3]: 152 µM
CCOP(=O)(OCC)/C(C#N)=C(\O)[C@H](Cc1ccccc1)NC(=O)C(CC(C)C)NC(C)=O (stereo partly drawn) |  | Ki [3]: 206 µM
CC(C)(C)OC(=O)N[C@H](C(=O)/C(C#N)=C(\O)c1ccccc1)C(=O)C(N)Cc1ccccc1 (stereo partly drawn) | 320 µM | 
